Assay results reported in ChEMBL document CHEMBL1201862, “PubChem BioAssay data set” (2004).
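The compound was tested at five concentrations on cells cultured in 96-well plates, with a 48-hour exposure period. Abbreviation: GI50, concentration required for 50% inhibition of growth.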 Calls of active or inactive are those of the source. No stated cut-off is given here; in the data, active = GI50 up to about 1.1 µM and inactive = higher.

How the values were obtained:
Assay in all cases: inhibition of tumour cell growth, NCI panel, 48 h
XF498 = test system: XF498
HOP-18 = test system: HOP-18
DMS-273 = test system: DMS-273
DMS-114 = test system: DMS-114
SNB-78 = test system: SNB-78
M19-MEL = test system: M19-MEL
KM-20L2 = test system: KM-20L2
LXFL 529 = test system: LXFL 529
RXF 631 = test system: RXF 631

Compound | GI50 (XF498) | GI50 (HOP-18) | GI50 (DMS-273) | GI50 (DMS-114) | GI50 (SNB-78) | GI50 (M19-MEL) | GI50 (KM-20L2) | GI50 (LXFL 529) | GI50 (RXF 631)
Cc1c2ccncc2c(C)c2c1[nH]c1ccc(Cl)cc12 | 4.31 µM (inactive) | 2.52 µM (inactive) | 1.59 µM (inactive) | 2.07 µM (inactive) | 3.94 µM (inactive) | 2.56 µM (inactive) | 2.56 µM (inactive) | 1.84 µM (inactive) | 
CC1CCSC(N(C(=O)N(C)c2ccccc2)c2ccccc2)=N1 (stereo not given) | > 100 µM (inactive) |  | > 100 µM (inactive) | > 100 µM (inactive) | > 100 µM (inactive) | > 100 µM (inactive) | > 100 µM (inactive) | > 100 µM (inactive) | 
Fc1cccc2cc3ccc4cccc5ccc(c12)c3c45 | > 100 µM (inactive) | 1.72 µM (inactive) | 0.296 µM (active) | > 100 µM (inactive) |  | > 100 µM (inactive) | > 100 µM (inactive) | > 100 µM (inactive) | > 100 µM (inactive)
CN(C)CCC(=O)N1C/C(=C/c2ccccc2)C(=O)/C(=C\c2ccccc2)C1 | 2.5 µM (inactive) | 4.46 µM (inactive) | 1.55 µM (inactive) | 1.41 µM (inactive) | 3 µM (inactive) | 0.834 µM (active) | 0.998 µM (active) | 1.92 µM (inactive) | 2.29 µM (inactive)
O=C(c1ccccn1)c1nc(-c2ccc(Cl)c(Cl)c2)nc2ccc(Cl)cc12 | 20.8 µM (inactive) |  | 32 µM (inactive) | 64.6 µM (inactive) | > 100 µM (inactive) | 81.1 µM (inactive) | > 100 µM (inactive) | 46.6 µM (inactive) | 
COc1cc2c(c(OC)c1)C1(CC(CC#N)C2)SCCS1 (stereo not given) |  | > 100 µM (inactive) | > 100 µM (inactive) | > 100 µM (inactive) | > 100 µM (inactive) | > 100 µM (inactive) | > 100 µM (inactive) | > 100 µM (inactive) | > 100 µM (inactive)
COc1cc2c(cc1OC)C(C(=O)c1cccc(OC)c1OC)C(=O)N(C)CC2 (stereo not given) | 63.4 µM (inactive) | > 100 µM (inactive) | > 100 µM (inactive) | 56.5 µM (inactive) |  | > 100 µM (inactive) | > 100 µM (inactive) | > 100 µM (inactive) | > 100 µM (inactive)
O=c1c(-c2ccccc2)c(O)nc2[nH]c3ccccc3n12 | > 100 µM (inactive) | > 100 µM (inactive) | > 100 µM (inactive) | > 100 µM (inactive) | > 100 µM (inactive) | > 100 µM (inactive) | > 100 µM (inactive) | > 100 µM (inactive) | > 100 µM (inactive)
COC(=O)C(=O)C(C#N)c1cccc2ccccc12 (stereo not given) | > 100 µM (inactive) | > 100 µM (inactive) | > 100 µM (inactive) | > 100 µM (inactive) | > 100 µM (inactive) | > 100 µM (inactive) | > 100 µM (inactive) | > 100 µM (inactive) | 
CC[C@@]1(OC(=O)CN(C)C)C(=O)OCc2c1cc1n(c2=O)Cc2cc3ccccc3nc2-1 | 0.354 µM (active) | 0.312 µM (active) | 0.01 µM (active) | 0.0259 µM (active) | 7.67 µM (inactive) | 0.114 µM (active) | 0.249 µM (active) | 1.29 µM (inactive) | 
O=C(NC12CC3CCC1CC(C3)C2)[C@@H]1CCCN1C(=O)OCc1ccccc1 (stereo not given in full) | 19.2 µM (inactive) | > 100 µM (inactive) | 49.8 µM (inactive) | 50.4 µM (inactive) | 49.9 µM (inactive) | 83.6 µM (inactive) | 46.9 µM (inactive) | 30.3 µM (inactive) | 
COc1cc2c(c(OC)c1OC)-c1ccc(OC)c(=O)cc1C(NC(=O)c1ccc(N=[N+]=[N-])cc1)CC2 (stereo not given) |  | > 84.9 µM (inactive) | 0.0244 µM (active) | 0.0257 µM (active) | 0.03 µM (active) | 0.0581 µM (active) | 0.0188 µM (active) | 0.0372 µM (active) | 
COc1ccc(OC)c2[s+]snc12 | 45.3 µM (inactive) |  | > 100 µM (inactive) |  | > 100 µM (inactive) | 15.8 µM (inactive) | > 100 µM (inactive) | 35.6 µM (inactive) | > 100 µM (inactive)
ONc1ncnc2[nH]cnc12 | > 100 µM (inactive) |  | > 100 µM (inactive) | > 100 µM (inactive) |  | > 100 µM (inactive) | > 100 µM (inactive) | > 100 µM (inactive) | 
COc1ccc(OCC(=O)O)c2c1CCCC2=O | 3.52 µM (inactive) |  | > 100 µM (inactive) | > 100 µM (inactive) | > 100 µM (inactive) | > 100 µM (inactive) |  | > 100 µM (inactive) | > 100 µM (inactive)
Nc1ccn([C@@H]2C[C@H](CO)[C@@H](O)[C@H]2O)c(=O)n1 |  | > 57.7 µM (inactive) | > 57.7 µM (inactive) | > 57.7 µM (inactive) | > 57.7 µM (inactive) | > 57.7 µM (inactive) | > 57.7 µM (inactive) | > 57.7 µM (inactive) | > 57.7 µM (inactive)
COC(=O)Cc1cc(O)c2c(c1O)C(=O)c1ccccc1C2=O |  | > 100 µM (inactive) | > 100 µM (inactive) | > 100 µM (inactive) | 37.6 µM (inactive) | > 100 µM (inactive) | > 100 µM (inactive) | 71.4 µM (inactive) | 35.6 µM (inactive)
COC(=O)/C=C/C1C2C3(CCC(C)C12C)OCCS3 (stereo not given) | > 100 µM (inactive) | > 100 µM (inactive) | > 100 µM (inactive) | > 100 µM (inactive) | > 100 µM (inactive) | > 100 µM (inactive) | > 100 µM (inactive) | > 100 µM (inactive) | 
C/C(=C\CNc1ncnc2c1ncn2C1CCCCO1)COP(=O)(O)O (stereo not given) | > 100 µM (inactive) | > 100 µM (inactive) | > 100 µM (inactive) | > 100 µM (inactive) | > 100 µM (inactive) | > 100 µM (inactive) | > 100 µM (inactive) | > 100 µM (inactive) | > 100 µM (inactive)
CN(C)C(=S)/N=c1\ss/c(=N\C(=S)N(C)C)n1-c1ccc(Cl)c(Cl)c1 |  |  | > 100 µM (inactive) | > 100 µM (inactive) | 67.1 µM (inactive) | > 100 µM (inactive) | > 100 µM (inactive) |  | 
CNS(=O)(=O)NNS(=O)(=O)c1ccc(Br)cc1 | > 100 µM (inactive) | 2.64 µM (inactive) | > 100 µM (inactive) | > 100 µM (inactive) | > 100 µM (inactive) | > 100 µM (inactive) | > 100 µM (inactive) | > 100 µM (inactive) | > 100 µM (inactive)
COC(=O)CSc1nnc(-c2ccc(O)c([N+](=O)[O-])c2)[nH]1 | > 100 µM (inactive) |  | > 100 µM (inactive) |  |  |  | > 100 µM (inactive) | > 100 µM (inactive) | > 100 µM (inactive)
CN(C)[C@@H]1C(O)=C(C(=O)NCNc2nc3[nH]nnc3c(=O)[nH]2)C(=O)[C@@]2(O)C(O)=C3C(=O)c4c(O)cccc4[C@@](C)(O)[C@H]3C[C@@H]12 | 1.26 µM (inactive) | 2.19 µM (inactive) | 1.29 µM (inactive) | 1.52 µM (inactive) | 1.81 µM (inactive) | 2.24 µM (inactive) | 16.2 µM (inactive) | 53.1 µM (inactive) | 0.836 µM (active)
COc1ccc2c(c1)CCc1c-2nc2cc3c(cc2c1O)OCO3 | > 100 µM (inactive) | > 100 µM (inactive) | > 100 µM (inactive) |  | > 100 µM (inactive) | > 100 µM (inactive) | > 100 µM (inactive) | > 100 µM (inactive) | 
CCN(CC)CCNc1ccc2nnn3c4ccccc4c(=O)c1c23 | 3.49 µM (inactive) |  | 3.66 µM (inactive) | 6.55 µM (inactive) | > 10 µM (inactive) | 4.86 µM (inactive) | 3.32 µM (inactive) | 5.22 µM (inactive) | 2.88 µM (inactive)
